Source: US20240400577A1, “MODULATORS OF PROTEIN KINASES” (VIBLIOME THERAPEUTICS, LLC, priority 2021, published 2024)

Experiments:
Assay in all cases: Kinase panel enzymatic inhibition assay (Nanosyn)
Format in all cases: biochemical
SPHK2 = target: T1, SPHK2 (Homo sapiens, UniProt Q9NRA0); settings: compound 5 μM; ATP at Km; 30-minute pre-incubation
T1 construct: Nanosyn (contract laboratory that ran the panel)
T1 sequence (Q9NRA0 1-654): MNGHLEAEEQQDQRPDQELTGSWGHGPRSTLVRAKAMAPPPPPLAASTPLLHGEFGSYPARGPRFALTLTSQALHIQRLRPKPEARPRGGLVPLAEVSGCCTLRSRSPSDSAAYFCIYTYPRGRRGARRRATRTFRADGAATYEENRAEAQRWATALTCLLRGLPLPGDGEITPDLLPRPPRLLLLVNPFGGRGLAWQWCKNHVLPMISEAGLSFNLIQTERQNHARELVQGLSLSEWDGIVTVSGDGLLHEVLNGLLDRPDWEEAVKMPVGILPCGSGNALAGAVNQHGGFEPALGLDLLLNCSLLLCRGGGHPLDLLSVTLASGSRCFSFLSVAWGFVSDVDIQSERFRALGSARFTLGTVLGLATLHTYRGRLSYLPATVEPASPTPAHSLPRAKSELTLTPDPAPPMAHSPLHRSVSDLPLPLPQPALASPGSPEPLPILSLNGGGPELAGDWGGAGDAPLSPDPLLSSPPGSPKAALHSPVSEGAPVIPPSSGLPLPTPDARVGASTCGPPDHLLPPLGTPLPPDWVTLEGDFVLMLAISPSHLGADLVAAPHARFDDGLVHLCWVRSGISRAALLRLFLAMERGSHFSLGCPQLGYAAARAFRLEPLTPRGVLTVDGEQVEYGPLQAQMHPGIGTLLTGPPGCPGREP
Summary of the method: (§1)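 Single-point screen: compound 5 μM, ATP at Km per kinase, 30 min pre-incubation. Readout by mobility shift (Caliper LabChip), ADP detection or TR-fluorescence. Reported as % inhibition or IC50.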

MAP4K2 = target: T2, MAP4K2 (Homo sapiens, UniProt Q12851); settings: compound 5 μM; ATP at Km; 30-minute pre-incubation
T2 construct: purchased Nanosyn (contract screening)
T2 sequence (Q12851 1-820): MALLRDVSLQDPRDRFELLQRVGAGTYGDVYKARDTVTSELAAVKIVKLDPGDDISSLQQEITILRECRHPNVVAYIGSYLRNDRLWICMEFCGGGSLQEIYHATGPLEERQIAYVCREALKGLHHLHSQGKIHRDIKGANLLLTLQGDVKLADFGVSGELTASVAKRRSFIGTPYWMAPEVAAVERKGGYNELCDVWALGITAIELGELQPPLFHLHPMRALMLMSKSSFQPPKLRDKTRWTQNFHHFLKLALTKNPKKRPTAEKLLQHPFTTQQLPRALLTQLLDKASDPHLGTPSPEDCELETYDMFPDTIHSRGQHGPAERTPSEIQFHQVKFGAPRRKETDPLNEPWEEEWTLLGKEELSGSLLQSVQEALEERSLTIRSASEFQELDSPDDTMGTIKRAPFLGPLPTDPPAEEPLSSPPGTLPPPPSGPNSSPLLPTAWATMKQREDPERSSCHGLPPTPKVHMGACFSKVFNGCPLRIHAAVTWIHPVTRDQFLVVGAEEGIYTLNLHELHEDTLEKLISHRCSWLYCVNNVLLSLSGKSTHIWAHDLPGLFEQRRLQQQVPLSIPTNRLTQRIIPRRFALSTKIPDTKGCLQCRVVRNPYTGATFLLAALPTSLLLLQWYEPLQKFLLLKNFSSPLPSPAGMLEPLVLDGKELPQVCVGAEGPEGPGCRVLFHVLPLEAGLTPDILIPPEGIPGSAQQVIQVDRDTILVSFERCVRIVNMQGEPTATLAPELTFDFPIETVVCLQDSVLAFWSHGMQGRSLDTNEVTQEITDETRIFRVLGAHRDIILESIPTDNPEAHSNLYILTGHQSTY
Summary of the method: as §1

SRC = target: T3, SRC (Homo sapiens, UniProt P12931); settings: compound 5 μM; ATP at Km; 30-minute pre-incubation
T3 construct: Nanosyn (contract laboratory that ran the panel)
Summary of the method: as §1

KIT = target: T4, KIT (Homo sapiens, UniProt P10721); settings: compound 5 μM; ATP at Km; 30-minute pre-incubation
T4 construct: purchased Nanosyn (contract screening)
Summary of the method: as §1

PKCb1 = target: T5, PKCb1 (Homo sapiens, UniProt P05771); settings: compound 5 μM; ATP at Km; 30-minute pre-incubation
T5 construct: Nanosyn (contract laboratory that ran the panel)
Summary of the method: as §1

KDR = target: T6, KDR (Homo sapiens, UniProt P35968); settings: compound 5 μM; ATP at Km; 30-minute pre-incubation
T6 construct: purchased Nanosyn (contract screening)
Summary of the method: as §1

p38b = target: T7, p38b (Homo sapiens, UniProt Q15759); settings: compound 5 μM; ATP at Km; 30-minute pre-incubation
T7 construct: Nanosyn (contract laboratory that ran the panel)
Summary of the method: as §1

LYNb = target: T8, LYNb (Homo sapiens, UniProt P07948); settings: compound 5 μM; ATP at Km; 30-minute pre-incubation
T8 construct: purchased Nanosyn (contract screening)
Summary of the method: as §1

COT1 = target: T9, COT1 (Homo sapiens, UniProt P41279); settings: compound 5 μM; ATP at Km; 30-minute pre-incubation
T9 construct: purchased Nanosyn (contract screening)
Summary of the method: as §1

LCK = target: T10, LCK (Homo sapiens, UniProt P06239); settings: ATP at Km, 30-minute pre-incubation; for inhibition at 5 µM: compound 5 μM; for IC50: read-out: kinase inhibition in terms of IC50, LCK
T10 construct: purchased Nanosyn (contract screening)
Summary of the method: as §1

FYN = target: T11, FYN (Homo sapiens, UniProt P06241); settings: compound 5 μM; ATP at Km; 30-minute pre-incubation
T11 construct: purchased Nanosyn (contract screening)
Summary of the method: as §1

FGR = target: T12, FGR (Homo sapiens, UniProt P09769); settings: compound 5 μM; ATP at Km; 30-minute pre-incubation
T12 construct: purchased Nanosyn (contract screening)
Summary of the method: as §1

HCK = target: T13, HCK (Homo sapiens, UniProt P08631); settings: compound 5 μM; ATP at Km; 30-minute pre-incubation
T13 construct: purchased Nanosyn (contract screening)
Summary of the method: as §1

T9 sequence (P41279 whole entry): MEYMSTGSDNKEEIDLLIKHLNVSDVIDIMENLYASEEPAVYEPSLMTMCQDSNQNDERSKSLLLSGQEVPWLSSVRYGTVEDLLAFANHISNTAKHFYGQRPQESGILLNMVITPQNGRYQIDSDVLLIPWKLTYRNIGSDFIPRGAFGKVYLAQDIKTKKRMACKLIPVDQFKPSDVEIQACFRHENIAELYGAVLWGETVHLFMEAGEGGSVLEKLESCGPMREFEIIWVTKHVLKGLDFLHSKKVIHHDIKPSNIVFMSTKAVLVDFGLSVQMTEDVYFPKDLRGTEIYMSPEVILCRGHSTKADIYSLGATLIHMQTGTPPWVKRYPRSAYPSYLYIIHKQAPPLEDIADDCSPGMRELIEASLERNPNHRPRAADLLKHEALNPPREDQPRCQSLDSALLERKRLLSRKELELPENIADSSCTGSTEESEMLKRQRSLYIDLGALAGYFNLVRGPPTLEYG
T5 sequence (P05771 whole entry): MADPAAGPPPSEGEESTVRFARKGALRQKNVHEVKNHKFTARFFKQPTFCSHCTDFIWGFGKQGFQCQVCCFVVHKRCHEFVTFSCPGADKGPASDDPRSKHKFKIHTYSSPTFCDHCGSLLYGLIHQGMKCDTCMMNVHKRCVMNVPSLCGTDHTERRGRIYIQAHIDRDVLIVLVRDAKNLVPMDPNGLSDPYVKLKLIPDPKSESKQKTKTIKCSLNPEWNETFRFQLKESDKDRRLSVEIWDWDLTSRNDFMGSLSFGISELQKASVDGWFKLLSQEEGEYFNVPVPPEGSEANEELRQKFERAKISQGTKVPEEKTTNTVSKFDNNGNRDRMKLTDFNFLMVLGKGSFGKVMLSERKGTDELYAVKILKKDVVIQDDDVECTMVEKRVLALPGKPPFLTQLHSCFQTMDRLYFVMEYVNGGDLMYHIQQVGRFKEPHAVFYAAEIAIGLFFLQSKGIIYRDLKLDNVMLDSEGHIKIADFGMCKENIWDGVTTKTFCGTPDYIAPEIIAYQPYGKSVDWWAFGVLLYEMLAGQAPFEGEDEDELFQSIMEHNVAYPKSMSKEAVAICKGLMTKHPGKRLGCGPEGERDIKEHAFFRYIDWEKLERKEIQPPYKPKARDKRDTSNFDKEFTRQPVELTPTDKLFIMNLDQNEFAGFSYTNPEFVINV
T13 sequence (P08631 whole entry): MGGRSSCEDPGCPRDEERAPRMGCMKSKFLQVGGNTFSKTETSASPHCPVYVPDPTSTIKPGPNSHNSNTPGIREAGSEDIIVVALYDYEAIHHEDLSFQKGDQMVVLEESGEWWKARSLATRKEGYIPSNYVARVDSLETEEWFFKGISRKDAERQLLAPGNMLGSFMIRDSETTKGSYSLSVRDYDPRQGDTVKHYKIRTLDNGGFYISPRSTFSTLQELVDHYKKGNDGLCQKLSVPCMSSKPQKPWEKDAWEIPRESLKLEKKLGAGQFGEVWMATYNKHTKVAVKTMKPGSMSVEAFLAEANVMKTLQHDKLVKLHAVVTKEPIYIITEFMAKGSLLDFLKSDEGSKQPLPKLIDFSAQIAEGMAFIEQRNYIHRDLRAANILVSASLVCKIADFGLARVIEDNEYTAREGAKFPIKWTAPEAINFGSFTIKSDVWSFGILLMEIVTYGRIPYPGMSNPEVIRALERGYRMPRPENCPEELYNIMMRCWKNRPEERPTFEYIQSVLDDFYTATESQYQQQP
T12 sequence (P09769 whole entry): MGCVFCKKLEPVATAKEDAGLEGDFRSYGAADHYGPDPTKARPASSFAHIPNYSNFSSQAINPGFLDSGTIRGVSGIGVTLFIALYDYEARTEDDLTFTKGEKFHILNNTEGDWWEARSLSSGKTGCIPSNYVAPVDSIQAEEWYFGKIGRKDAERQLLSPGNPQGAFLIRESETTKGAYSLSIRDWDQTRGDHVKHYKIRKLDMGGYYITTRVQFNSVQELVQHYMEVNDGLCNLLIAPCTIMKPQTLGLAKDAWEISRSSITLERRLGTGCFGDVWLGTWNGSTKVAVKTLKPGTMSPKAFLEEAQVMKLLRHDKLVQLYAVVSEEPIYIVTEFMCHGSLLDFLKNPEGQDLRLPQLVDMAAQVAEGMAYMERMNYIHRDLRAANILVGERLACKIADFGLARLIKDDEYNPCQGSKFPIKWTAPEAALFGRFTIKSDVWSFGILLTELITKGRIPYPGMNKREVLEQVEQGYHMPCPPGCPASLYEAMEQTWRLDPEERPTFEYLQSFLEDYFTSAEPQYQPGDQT
T11 sequence (P06241 whole entry): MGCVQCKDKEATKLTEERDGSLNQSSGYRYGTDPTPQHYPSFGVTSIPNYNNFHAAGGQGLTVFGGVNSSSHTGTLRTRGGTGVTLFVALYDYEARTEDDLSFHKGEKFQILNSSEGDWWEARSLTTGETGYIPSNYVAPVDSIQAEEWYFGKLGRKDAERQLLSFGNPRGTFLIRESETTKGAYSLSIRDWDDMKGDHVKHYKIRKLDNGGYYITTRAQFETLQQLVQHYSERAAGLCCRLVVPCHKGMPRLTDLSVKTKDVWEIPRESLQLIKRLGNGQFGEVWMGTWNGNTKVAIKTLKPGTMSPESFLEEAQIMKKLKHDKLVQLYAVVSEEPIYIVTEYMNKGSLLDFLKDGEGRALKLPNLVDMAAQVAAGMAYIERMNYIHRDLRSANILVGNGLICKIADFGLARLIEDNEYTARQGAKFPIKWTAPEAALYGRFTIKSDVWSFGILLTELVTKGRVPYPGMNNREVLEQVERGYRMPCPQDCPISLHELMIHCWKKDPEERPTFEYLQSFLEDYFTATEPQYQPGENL
T7 sequence (Q15759 whole entry): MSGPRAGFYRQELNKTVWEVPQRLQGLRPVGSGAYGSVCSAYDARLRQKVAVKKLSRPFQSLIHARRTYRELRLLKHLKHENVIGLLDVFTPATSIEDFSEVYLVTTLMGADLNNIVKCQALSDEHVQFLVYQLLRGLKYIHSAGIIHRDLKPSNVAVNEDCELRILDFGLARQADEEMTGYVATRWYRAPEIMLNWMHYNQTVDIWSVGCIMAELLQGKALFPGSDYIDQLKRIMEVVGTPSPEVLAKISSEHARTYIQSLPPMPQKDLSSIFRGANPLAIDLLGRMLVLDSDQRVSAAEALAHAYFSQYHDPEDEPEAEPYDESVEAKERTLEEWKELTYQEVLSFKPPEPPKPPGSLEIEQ
T4 sequence (P10721 26-976): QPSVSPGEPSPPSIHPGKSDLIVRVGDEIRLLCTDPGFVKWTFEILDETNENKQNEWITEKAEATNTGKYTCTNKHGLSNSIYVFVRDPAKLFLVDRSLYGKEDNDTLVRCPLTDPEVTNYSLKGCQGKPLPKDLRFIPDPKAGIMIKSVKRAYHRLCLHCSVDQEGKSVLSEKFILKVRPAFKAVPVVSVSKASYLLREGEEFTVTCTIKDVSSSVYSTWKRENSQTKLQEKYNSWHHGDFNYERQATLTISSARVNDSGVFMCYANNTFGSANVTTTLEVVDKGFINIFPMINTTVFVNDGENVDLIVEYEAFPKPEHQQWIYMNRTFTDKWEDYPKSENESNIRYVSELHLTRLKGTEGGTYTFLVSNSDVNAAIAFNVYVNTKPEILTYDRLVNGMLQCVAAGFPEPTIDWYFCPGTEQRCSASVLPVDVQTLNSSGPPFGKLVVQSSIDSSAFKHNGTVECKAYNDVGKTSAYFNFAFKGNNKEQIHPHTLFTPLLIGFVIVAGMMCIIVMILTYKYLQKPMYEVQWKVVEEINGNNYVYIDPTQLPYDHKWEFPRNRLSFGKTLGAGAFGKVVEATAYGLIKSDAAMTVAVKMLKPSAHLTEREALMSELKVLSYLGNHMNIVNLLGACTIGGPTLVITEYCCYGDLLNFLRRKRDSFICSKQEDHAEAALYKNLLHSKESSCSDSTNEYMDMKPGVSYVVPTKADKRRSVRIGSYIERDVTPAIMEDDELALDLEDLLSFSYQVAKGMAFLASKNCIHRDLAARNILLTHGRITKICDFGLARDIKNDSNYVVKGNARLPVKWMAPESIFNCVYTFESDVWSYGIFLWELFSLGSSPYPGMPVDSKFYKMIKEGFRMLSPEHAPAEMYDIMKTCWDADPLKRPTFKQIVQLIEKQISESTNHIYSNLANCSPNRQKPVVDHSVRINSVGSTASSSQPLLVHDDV
T3 sequence (P12931 whole entry): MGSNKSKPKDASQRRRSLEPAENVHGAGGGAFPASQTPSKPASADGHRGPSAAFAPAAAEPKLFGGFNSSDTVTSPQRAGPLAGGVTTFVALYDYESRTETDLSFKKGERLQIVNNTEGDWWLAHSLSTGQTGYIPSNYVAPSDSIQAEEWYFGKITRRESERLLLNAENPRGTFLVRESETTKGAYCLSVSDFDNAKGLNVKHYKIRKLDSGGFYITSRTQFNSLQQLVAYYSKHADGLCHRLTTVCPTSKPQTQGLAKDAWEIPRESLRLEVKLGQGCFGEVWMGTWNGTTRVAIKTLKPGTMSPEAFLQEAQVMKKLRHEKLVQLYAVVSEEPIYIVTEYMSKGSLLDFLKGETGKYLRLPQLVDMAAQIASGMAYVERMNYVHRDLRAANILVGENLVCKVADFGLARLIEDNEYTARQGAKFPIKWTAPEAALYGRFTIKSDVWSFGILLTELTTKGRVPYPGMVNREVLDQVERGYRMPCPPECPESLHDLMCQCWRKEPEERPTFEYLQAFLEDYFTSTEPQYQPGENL

inhibition at 5 µM (SPHK2) [%] | inhibition at 5 µM (MAP4K2) [%] | inhibition at 5 µM (SRC) [%] | inhibition at 5 µM (KIT) [%] | inhibition at 5 µM (PKCb1) [%] | inhibition at 5 µM (KDR) [%] | inhibition at 5 µM (p38b) [%] | inhibition at 5 µM (LYNb) [%] | inhibition at 5 µM (COT1) [%] | inhibition at 5 µM (LCK) [%] | inhibition at 5 µM (FYN) [%] | inhibition at 5 µM (FGR) [%] | inhibition at 5 µM (HCK) [%] | IC50 (LCK) [nM] | Structure (SMILES)
< 79 | < 79 | < 79 | 90 to 94 | < 79 | < 79 | < 79 | < 79 | < 79 | < 79 | < 79 | < 79 | < 79 | – | Cc1ccc(NC(=O)c2cc(S(C)(=O)=O)n(-c3ccc(F)cc3)n2)cc1Nc1ccc2ncn(C)c(=O)c2c1 [Ex4, 1-(4-fluorophenyl)-N-(4-methyl-3-((3-methyl-4-oxo-3,4-dihydroquinazolin-6-yl)amino)phenyl)-5-(methylsulfonyl)-1H-pyrazole-3-carboxamide]
< 79 | < 79 | < 79 | 80 to 89 | < 79 | < 79 | 80 to 89 | 90 to 94 | < 79 | 90 to 94 | < 79 | < 79 | < 79 | – | Cc1ccc(NC(=O)c2cc([S+](C)[O-])n(-c3ccc(F)cc3)n2)cc1Nc1ccc2ncn(C)c(=O)c2c1 (centres unmarked) [Ex5, 1-(4-fluorophenyl)-N-(4-methyl-3-((3-methyl-4-oxo-3,4-dihydroquinazolin-6-yl)amino)phenyl)-5-(methylsulfinyl)-1H-pyrazole-3-carboxamide]
< 79 | < 79 | 90 to 94 | 90 to 94 | < 79 | < 79 | 80 to 89 | ≥ 95 | < 79 | ≥ 95 | ≥ 95 | 80 to 89 | ≥ 95 | – | Cc1ccc(NC(=O)c2cc([S+](C)[O-])n(-c3ccc(F)cc3)n2)cc1C#Cc1cnc2cccnn12 (centres unmarked) [Ex6, 1-(4-fluorophenyl)-N-(3-(imidazo[1,2-b]pyridazin-3-ylethynyl)-4-methylphenyl)-5-(methylsulfinyl)-1H-pyrazole-3-carboxamide]
< 79 | < 79 | < 79 | < 79 | < 79 | < 79 | < 79 | < 79 | < 79 | < 79 | < 79 | < 79 | < 79 | – | CNC(=O)c1cc(Oc2ccc(F)c(NC(=O)c3cc([S+](C)[O-])n(-c4ccc(F)cc4)n3)c2)ccn1 (centres unmarked) [Ex7, 4-(4-fluoro-3-(1-(4-fluorophenyl)-5-(methylsulfinyl)-1H-pyrazole-3-carboxamido)phenoxy)-N-methylpicolinamide]
< 79 | 80 to 89 | < 79 | < 79 | 80 to 89 | < 79 | < 79 | < 79 | 90 to 94 | < 79 | < 79 | < 79 | < 79 | – | CSc1cc(C(=O)Nc2cc(Oc3ccnc(C(=O)NC4CNC4)c3)ccc2F)nn1-c1ccc(F)cc1 [Ex8, N-(azetidin-3-yl)-4-(4-fluoro-3-(1-(4-fluorophenyl)-5-(methylthio)-1H-pyrazole-3-carboxamido)phenoxy)picolinamide]
< 79 | < 79 | < 79 | < 79 | < 79 | < 79 | 80 to 89 | < 79 | < 79 | < 79 | < 79 | < 79 | < 79 | – | Cc1ccc(NC(=O)c2cc(S(C)(=O)=O)n(-c3ccc(F)cc3)n2)cc1-c1cc(OCCO)nc(N2CCOCC2)c1 [Ex9, 1-(4-fluorophenyl)-N-(3-(2-(2-hydroxyethoxy)-6-morpholinopyridin-4-yl)-4-methylphenyl)-5-(methylsulfonyl)-1H-pyrazole-3-carboxamide]
< 79 | < 79 | < 79 | < 79 | < 79 | < 79 | < 79 | < 79 | < 79 | < 79 | < 79 | < 79 | < 79 | – | Cc1ccc(NC(=O)c2cc([S+](C)[O-])n(-c3ccc(F)cc3)n2)cc1-c1cc(OCCO)nc(N2CCOCC2)c1 (centres unmarked) [Ex10, 1-(4-fluorophenyl)-N-(3-(2-(2-hydroxyethoxy)-6-morpholinopyridin-4-yl)-4-methylphenyl)-5-(methylsulfinyl)-1H-pyrazole-3-carboxamide]
< 79 | < 79 | < 79 | < 79 | < 79 | < 79 | < 79 | < 79 | < 79 | < 79 | < 79 | < 79 | < 79 | – | Cc1ccc(NC(=O)c2cc([S+](C)[O-])n(-c3ccc(F)cc3)n2)cc1-c1cc(N2CCOCC2)c(=O)n(C)c1 (centres unmarked) [Ex11, 1-(4-fluorophenyl)-N-(4-methyl-3-(1-methyl-5-morpholino-6-oxo-1,6-dihydropyridin-3-yl)phenyl)-5-(methylsulfinyl)-1H-pyrazole-3-carboxamide]
– | – | – | – | – | – | – | – | – | – | – | – | – | < 500 | COc1cc2nccc(Oc3ccc(NC(=O)c4cc(S(C)(=O)=O)n(-c5ccc(F)cc5)n4)c(F)c3)c2cc1OC [Ex71, N-(4-((6,7-dimethoxyquinolin-4-yl)oxy)-2-fluorophenyl)-1-(4-fluorophenyl)-5-(methylsulfonyl)-1H-pyrazole-3-carboxamide]
– | – | – | – | – | – | – | – | – | – | – | – | – | 500 to 1000 | COc1cc2nccc(Oc3ccc(NC(=O)c4cc(S(C)(=O)=O)n(-c5ccc(F)cc5)n4)cc3)c2cc1OC [Ex72, N-(4-((6,7-dimethoxyquinolin-4-yl)oxy)phenyl)-1-(4-fluorophenyl)-5-(methylsulfonyl)-1H-pyrazole-3-carboxamide]
– | – | – | – | – | – | – | – | – | – | – | – | – | 500 to 1000 | COc1cc2nccc(Oc3ccc(NC(=O)c4cc(S(C)(=O)=O)n(-c5ccc(F)cc5)n4)cc3F)c2cc1OC [Ex73, N-(4-((6,7-dimethoxyquinolin-4-yl)oxy)-3-fluorophenyl)-1-(4-fluorophenyl)-5-(methylsulfonyl)-1H-pyrazole-3-carboxamide]
